Experiments:
[1] = Drug metabolism in human liver microsomes assessed as CYP3A5*1/*1-compound formation after 15 mins by LC-MS/MS analysis in presence of UDPGA; type: ADME; details: 0.25 h
[2] = molecular target: T1, UDP-glucuronosyltransferase 2B7 (Homo sapiens, UniProt P16662); test: (§1) Drug metabolism assessed as human recombinant UGT2B7-mediated (2S,3S,4S,5R,6S)-6-(2-(4-(4-(tert-butylcarbamoyl)-2-(2-chloro-4-cyclopropylphenylsulfonamido)phenoxy)-5-chloro-2-fluorophenyl)acetoxy)-3,4,5-trihydroxytetrahydro-2H-pyran-2-carboxylic acid formation at 10 uM after 30 mins by LC-MS/MS analysis; type: ADME; details: recombinant enzyme, 0.5 h
T1 sequence (P16662 whole entry): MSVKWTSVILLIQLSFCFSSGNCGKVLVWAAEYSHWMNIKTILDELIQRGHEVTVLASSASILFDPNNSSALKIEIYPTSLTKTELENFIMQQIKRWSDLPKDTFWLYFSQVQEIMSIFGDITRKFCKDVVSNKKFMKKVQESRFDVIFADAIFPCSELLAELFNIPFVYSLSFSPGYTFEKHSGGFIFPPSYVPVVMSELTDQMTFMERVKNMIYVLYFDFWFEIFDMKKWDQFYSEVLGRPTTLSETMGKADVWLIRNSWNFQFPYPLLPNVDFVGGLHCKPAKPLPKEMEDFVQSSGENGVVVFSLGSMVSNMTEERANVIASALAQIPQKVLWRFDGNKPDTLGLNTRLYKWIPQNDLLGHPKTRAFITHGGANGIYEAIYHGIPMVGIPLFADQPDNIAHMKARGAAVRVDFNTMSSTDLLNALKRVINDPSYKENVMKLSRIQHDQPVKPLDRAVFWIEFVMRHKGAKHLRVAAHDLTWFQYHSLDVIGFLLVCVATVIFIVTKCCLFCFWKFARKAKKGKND

Cytochrome P450 3A5 = Cytochrome P450 3A5 (Homo sapiens, UniProt P20815); test: Drug metabolism assessed as recombinant CYP3A5 (unknown origin)-mediated 2-(4-(4-(tert-butylcarbamoyl)-2-(2-chloro-4-(1-hydroxycyclopropyl)phenylsulfonamido)phenoxy)-5-chloro-2-fluorophenyl)acetic acid formation at 10 uM after 30 mins by LC-MS/MS analysis; type: ADME; details: recombinant enzyme, 0.5 h
Chain of Cytochrome P450 3A5 (P20815 whole entry): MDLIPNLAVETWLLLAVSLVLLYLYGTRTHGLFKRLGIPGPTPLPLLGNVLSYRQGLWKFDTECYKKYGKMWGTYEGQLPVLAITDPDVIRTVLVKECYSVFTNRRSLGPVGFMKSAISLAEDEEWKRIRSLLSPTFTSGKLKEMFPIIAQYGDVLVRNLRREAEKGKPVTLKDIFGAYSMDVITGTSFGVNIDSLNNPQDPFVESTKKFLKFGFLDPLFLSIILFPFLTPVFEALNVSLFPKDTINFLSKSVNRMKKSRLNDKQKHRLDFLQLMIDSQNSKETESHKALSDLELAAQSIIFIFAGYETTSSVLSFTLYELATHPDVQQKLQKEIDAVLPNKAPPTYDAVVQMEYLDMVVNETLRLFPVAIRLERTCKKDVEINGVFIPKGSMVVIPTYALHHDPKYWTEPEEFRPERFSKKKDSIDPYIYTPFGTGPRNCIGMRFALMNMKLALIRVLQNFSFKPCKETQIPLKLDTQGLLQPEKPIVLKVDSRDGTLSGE

Cytochrome P450 3A7 = Cytochrome P450 3A7 (Homo sapiens, UniProt P24462); test: Drug metabolism assessed as recombinant CYP3A7 (unknown origin)-mediated 2-(4-(4-(tert-butylcarbamoyl)-2-(2-chloro-4-(1-hydroxycyclopropyl)phenylsulfonamido)phenoxy)-5-chloro-2-fluorophenyl)acetic acid formation at 10 uM after 30 mins by LC-MS/MS analysis; type: ADME; details: recombinant enzyme, 0.5 h
Chain of Cytochrome P450 3A7 (P24462 whole entry): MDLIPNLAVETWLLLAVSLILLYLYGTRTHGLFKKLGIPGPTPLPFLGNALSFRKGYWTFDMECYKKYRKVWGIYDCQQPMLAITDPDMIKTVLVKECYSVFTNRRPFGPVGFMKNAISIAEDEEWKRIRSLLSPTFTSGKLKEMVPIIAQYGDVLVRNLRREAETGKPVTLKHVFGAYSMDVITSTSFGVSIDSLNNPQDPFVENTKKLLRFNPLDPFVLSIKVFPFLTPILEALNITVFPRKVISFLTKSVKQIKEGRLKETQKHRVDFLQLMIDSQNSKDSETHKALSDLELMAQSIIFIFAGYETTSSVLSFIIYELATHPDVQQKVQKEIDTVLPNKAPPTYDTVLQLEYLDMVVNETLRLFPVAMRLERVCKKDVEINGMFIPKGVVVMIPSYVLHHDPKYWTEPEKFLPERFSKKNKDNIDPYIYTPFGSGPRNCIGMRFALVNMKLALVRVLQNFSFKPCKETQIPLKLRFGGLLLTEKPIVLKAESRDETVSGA

[3] = molecular target: UDP-glucuronosyltransferase 1A9 (Homo sapiens, UniProt O60656); test: as §1, with “UGT1A9-mediated” for “UGT2B7-mediated”; type: ADME; details: recombinant enzyme, 0.5 h
Chain of UDP-glucuronosyltransferase 1A9 (O60656 whole entry): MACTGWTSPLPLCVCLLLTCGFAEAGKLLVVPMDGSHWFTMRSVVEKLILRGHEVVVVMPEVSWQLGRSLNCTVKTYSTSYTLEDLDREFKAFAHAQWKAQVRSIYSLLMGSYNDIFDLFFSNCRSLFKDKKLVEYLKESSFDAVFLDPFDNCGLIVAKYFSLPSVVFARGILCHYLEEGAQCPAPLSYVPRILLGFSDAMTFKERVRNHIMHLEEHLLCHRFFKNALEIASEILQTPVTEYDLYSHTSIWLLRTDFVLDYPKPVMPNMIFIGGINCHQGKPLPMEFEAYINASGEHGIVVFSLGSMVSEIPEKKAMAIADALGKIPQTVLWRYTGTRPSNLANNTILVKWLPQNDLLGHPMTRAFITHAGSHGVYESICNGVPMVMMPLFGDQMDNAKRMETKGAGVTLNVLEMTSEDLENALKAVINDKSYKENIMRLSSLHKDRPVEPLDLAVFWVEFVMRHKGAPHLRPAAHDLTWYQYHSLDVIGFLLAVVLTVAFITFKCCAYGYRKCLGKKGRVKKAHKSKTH

CYP2C9 = CYP2C9 (Homo sapiens, UniProt P11712); test: Induction of CYP2C9 in human hepatocytes using diclofenac as substrate at 0.3 to 30 uM treated every 24 hrs for 2 days measured on day 5 by LC-MS/MS analysis relative to control; type: ADME, cell-based, Hepatocyte; details: probe diclofenac, read-out: FC
Chain of CYP2C9 (P11712 whole entry): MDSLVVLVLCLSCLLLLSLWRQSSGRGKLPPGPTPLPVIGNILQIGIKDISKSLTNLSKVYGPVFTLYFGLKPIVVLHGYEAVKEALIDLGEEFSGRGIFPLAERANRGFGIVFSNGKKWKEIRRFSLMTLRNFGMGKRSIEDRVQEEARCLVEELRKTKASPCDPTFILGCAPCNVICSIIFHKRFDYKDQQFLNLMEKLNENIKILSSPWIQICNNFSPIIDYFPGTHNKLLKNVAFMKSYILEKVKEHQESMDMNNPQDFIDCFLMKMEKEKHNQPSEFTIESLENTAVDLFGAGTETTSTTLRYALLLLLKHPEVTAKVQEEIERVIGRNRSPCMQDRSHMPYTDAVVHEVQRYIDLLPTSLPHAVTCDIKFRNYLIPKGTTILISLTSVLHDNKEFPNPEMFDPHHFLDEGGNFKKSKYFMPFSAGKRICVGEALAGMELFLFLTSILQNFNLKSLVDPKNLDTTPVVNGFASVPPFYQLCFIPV

[4] = Fraction unbound in plasma (unknown origin); type: ADME, cell-free
Cytochrome P450 2J2 [5] = molecular target: T2, Cytochrome P450 2J2 (Homo sapiens, UniProt P51589); test: Drug metabolism assessed as recombinant CYP2J2 (unknown origin)-mediated 2-(5-chloro-4-(2-(2-chloro-4-cyclopropylphenylsulfonamido)-4-(1-hydroxy-2-methylpropan-2-ylcarbamoyl)phenoxy)-2-fluorophenyl)acetic acid formation at 10 uM after 30 mins by LC-MS/MS analysis; type: ADME; details: recombinant enzyme, 0.5 h
T2 sequence (P51589 whole entry): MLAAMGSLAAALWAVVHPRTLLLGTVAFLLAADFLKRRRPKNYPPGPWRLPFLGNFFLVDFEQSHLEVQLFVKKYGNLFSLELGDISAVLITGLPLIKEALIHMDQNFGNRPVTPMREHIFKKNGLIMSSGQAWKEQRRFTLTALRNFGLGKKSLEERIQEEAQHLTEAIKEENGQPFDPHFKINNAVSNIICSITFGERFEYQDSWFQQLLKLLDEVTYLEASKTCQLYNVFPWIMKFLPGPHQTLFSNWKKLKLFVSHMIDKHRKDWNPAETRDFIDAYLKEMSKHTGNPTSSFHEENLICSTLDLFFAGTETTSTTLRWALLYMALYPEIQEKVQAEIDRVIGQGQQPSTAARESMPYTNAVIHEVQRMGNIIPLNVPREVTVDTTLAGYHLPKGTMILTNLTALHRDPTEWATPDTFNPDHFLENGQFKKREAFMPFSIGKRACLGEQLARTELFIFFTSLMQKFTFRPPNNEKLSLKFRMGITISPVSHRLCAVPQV

CYP3A4 = CYP3A4 (Homo sapiens, UniProt P08684); test: Induction of CYP3A4 in human hepatocytes using midazolam as substrate at 0.3 to 30 uM treated every 24 hrs for 2 days measured on day 5 by LC-MS/MS analysis relative to control
Chain of CYP3A4 (P08684 whole entry): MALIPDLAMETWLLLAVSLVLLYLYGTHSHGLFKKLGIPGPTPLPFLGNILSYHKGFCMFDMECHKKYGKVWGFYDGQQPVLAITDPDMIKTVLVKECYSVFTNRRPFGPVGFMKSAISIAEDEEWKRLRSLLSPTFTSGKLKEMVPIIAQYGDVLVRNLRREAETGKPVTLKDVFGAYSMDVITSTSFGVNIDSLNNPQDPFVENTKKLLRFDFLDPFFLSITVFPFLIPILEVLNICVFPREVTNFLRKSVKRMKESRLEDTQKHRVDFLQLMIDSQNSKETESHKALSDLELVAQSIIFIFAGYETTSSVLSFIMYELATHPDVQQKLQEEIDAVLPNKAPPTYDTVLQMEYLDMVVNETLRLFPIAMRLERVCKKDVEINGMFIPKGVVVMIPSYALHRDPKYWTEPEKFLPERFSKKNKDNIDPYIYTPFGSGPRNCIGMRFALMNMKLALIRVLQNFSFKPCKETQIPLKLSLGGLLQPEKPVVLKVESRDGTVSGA

Liver microsome [6] = test: Drug metabolism in human liver microsomes assessed as 2-(5-chloro-4-(2-(2-chloro-4-cyclopropylphenylsulfonamido)-4-(1-hydroxy-2-methylpropan-2-ylcarbamoyl)phenoxy)-2-fluorophenyl)acetic acid formation at 2 uM after 60 mins by LC-MS/MS analysis in presence of montelukast; type: ADME; details: 1 h
CYP2B6 = CYP2B6 (Homo sapiens, UniProt P20813); test: Induction of CYP2B6 in human hepatocytes using bupropion as substrate at 0.3 to 30 uM treated every 24 hrs for 2 days measured on day 5 by LC-MS/MS analysis relative to control; type: ADME, cell-based, Hepatocyte; details: probe bupropion, read-out: FC
Chain of CYP2B6 (P20813 whole entry): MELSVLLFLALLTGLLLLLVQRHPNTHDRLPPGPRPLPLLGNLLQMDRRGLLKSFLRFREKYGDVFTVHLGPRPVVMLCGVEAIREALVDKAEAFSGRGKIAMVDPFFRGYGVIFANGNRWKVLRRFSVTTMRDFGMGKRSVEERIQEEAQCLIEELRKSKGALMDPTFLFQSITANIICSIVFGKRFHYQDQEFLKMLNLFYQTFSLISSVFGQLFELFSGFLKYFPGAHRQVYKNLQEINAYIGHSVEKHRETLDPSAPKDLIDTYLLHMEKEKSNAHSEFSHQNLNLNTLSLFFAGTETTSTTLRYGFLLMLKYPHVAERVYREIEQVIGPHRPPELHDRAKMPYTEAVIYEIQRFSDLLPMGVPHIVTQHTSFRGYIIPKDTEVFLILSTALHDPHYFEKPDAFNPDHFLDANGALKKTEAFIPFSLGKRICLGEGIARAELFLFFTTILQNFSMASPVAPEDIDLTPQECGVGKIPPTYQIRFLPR

Cytochrome P450 2J2 [7] = molecular target: T2, Cytochrome P450 2J2; test: Drug metabolism assessed as recombinant CYP2J2 (unknown origin)-mediated 2-(4-(4-(tert-butylcarbamoyl)-2-(2-chloro-4-(1-hydroxycyclopropyl)phenylsulfonamido)phenoxy)-5-chloro-2-fluorophenyl)acetic acid formation at 10 uM after 30 mins by LC-MS/MS analysis; type: ADME; details: recombinant enzyme, 0.5 h
[8] = molecular target: UDP-glucuronosyltransferase 1A4 (Homo sapiens, UniProt P22310); test: as §1, with “UGT1A4-mediated” for “UGT2B7-mediated”; type: ADME; details: recombinant enzyme, 0.5 h
Chain of UDP-glucuronosyltransferase 1A4 (P22310 whole entry): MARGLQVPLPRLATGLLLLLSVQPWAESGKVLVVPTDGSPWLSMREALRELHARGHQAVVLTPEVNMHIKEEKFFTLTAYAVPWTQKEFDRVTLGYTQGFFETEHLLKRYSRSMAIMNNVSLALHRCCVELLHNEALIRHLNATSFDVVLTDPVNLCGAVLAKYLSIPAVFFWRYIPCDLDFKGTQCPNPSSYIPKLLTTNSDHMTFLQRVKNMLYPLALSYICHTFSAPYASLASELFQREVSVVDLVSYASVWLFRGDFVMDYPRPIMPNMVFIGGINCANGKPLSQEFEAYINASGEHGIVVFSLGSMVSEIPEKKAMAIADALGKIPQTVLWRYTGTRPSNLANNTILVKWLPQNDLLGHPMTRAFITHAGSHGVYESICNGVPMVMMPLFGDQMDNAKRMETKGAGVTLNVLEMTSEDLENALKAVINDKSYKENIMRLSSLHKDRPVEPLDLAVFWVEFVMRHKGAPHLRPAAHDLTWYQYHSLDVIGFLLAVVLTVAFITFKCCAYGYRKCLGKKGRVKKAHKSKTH

[9] = molecular target: UDP-glucuronosyltransferase 2B15 (Homo sapiens, UniProt P54855); test: as §1, with “UGT2B15-mediated” for “UGT2B7-mediated”; type: ADME; details: recombinant enzyme, 0.5 h
Chain of UDP-glucuronosyltransferase 2B15 (P54855 whole entry): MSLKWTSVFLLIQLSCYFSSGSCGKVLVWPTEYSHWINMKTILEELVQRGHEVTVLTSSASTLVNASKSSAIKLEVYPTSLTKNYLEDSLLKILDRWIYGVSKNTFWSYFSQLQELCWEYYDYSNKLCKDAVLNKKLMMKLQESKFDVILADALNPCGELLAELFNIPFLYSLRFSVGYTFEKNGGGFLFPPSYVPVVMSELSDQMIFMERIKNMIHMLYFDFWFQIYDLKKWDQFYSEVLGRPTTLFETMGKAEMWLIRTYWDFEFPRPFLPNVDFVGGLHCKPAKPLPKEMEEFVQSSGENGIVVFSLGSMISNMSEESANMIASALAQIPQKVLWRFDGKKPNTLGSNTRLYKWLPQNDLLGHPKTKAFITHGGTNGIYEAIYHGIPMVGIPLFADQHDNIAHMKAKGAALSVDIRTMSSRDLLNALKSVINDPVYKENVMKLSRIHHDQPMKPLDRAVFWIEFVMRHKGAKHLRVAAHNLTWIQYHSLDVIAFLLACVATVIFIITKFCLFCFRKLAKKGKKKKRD

CYP1A2 = test: Upregulation of CYP1A2 mRNA expression in human hepatocytes at 0.3 to 30 uM treated every 24 hrs for 2 days measured on day 5 relative to control; type: ADME, cell-based, Hepatocyte; details: read-out: FC
Liver microsome [10] = test: Drug metabolism in human liver microsomes assessed as 2-(5-chloro-4-(2-(2-chloro-4-cyclopropylphenylsulfonamido)-4-(1-hydroxy-2-methylpropan-2-ylcarbamoyl)phenoxy)-2-fluorophenyl)acetic acid formation at 2 uM after 60 mins by LC-MS/MS analysis in presence of ketoconazole; type: ADME; details: 1 h

Structure (SMILES)	Drug metabolism [1]	Drug metabolism [2]	Drug metabolism (Cytochrome P450 3A5)	Drug metabolism (Cytochrome P450 3A7)	Drug metabolism [3]	fold induction at 48 h, up to 30 µM (CYP2C9)	fraction unbound [4]	Drug metabolism (Cytochrome P450 2J2 [5])	fold induction at 48 h, 30 µM (CYP3A4)	Drug metabolism (Liver microsome [6])	fold induction at 48 h, up to 30 µM (CYP2B6)	Drug metabolism (Cytochrome P450 2J2 [7])	Drug metabolism [8]	Drug metabolism [9]	fold induction at 48 h, up to 30 µM (CYP1A2)	Drug metabolism (Liver microsome [10])
CC(C)(C)NC(=O)c1ccc(Oc2cc(F)c(CC(=O)O[C@@H]3O[C@H](C(=O)O)[C@@H](O)[C@H](O)[C@H]3O)cc2Cl)c(NS(=O)(=O)c2ccc(C3CC3)cc2Cl)c1	metabolite_detected															
CC(C)(C)NC(=O)c1ccc(Oc2cc(F)c(CC(=O)O)cc2Cl)c(NS(=O)(=O)c2ccc(C3CC3)cc2Cl)c1 [VIDUPIPRANT]		metabolite_detected	metabolite_detected	metabolite_detected	metabolite_not_detected	1.4	0.003	metabolite_detected	1.4	metabolite_not_detected	1.4	metabolite_detected	metabolite_detected	metabolite_not_detected	1.7	metabolite_not_detected
